Measurements taken from US8268961B2, “Antibacterial peptides and analogues thereof” (Universita Degli Studi di Siena, priority 2004, dated 2012).
Read-outs that look alike come from different tables or passages of the source. Positions of bridges follow the written chain, without caps; N, C: chain ends. Chains are numbered I, II in the order given. No end group written: not given here.

Experiments:
[1] = system: Escherichia coli W99FI0077; type: cell-based; conditions: W99FI0077
Source text: (§1) MIC is defined as the lowest concentration, in an antibiotic dilution range, that inhibits visible bacterial growth. The importance of MIC sensitivity test is based on the principle that in vitro sensitivity provides a predictive indication of the in vivo efficacy of the antibiotic therapy. Values are expressed as molar concentration and compared to MIC values obtained with commercially available antibiotics such as amikacin, ceftriaxone and levofloxacin (Table 3).
(§2) Reference strains (Escherichia coli ATCC 25922, Pseudomonas aeruginosa ATCC 27853, Staphylococus aureus ATCC 25923 and Chryseobacterium meningosepticum CCUG 4310) and several recent clinical isolates (including multidrug-resistant ones) of various species (Table 2) were used for conventional susceptibility testing experiments. Minimum Inhibitory Concentration (MIC) was determined by a standard microdilution assay as recommended by the National Commitee for Clinical Laboratory Standards (NCCLS) using cation-supplemented Mueller-Hinton (MH) broth (Oxoid Ltd. Basingstoke, UK) and a bacterial inoculum of 5×10^4 CFU per well, in a final volume of 100 μl. Results were recorded by visual inspection after 24 h of incubation at 37° C.

[2] = system: Klebsiella pneumoniae W99FI0057; type: cell-based; conditions: W99FI0057
Source text: as §1, §2

[3] = system: Pseudomonas aeruginosa 885149; type: cell-based; conditions: 885149
Source text: as §1, §2

[4] = system: Pseudomonas aeruginosa 891; type: cell-based; conditions: 891
Source text: as §1, §2

[5] = system: Pseudomonas aeruginosa ATCC27853; type: cell-based; conditions: ATCC27853
Source text: as §1, §2

[6] = system: Staphylococcus aureus ATCC 25923; type: cell-based
Source text: as §1, §2

[7] = system: Staphylococus aureus MIU-68A; type: cell-based, Staphylococcus aureus; conditions: Staphylococus aureus MIU-68A, meticillin-susceptible
Source text: as §1, §2

E. coli strain TG1 = assay: Test of antibacterial activity (colony growth inhibition) on E. coli strain TG1; type: cell-based
Method: The antimicrobic activity of the peptides in linear form (L1, L4, L5, L6) and in MAP form (M1, M4, M5, M6) was assayed on the TG1 strain of E. coli. The peptides were incubated at various concentrations (2-1-0.5-0.25-0.12 mg/ml) with cells of E. coli (OD600=0.2) for about 1 hour at 37° C. Subsequently, the cells were plated on agar at dilution such to allow counting of individual colonies. The antimicrobic activity of the synthesised peptide L 1 and M1 is shown FIG. 1 and is compared to a non correlated MAP peptide (MNC) used as negative control.
In one example, the tetrabranched MAP peptides with the amino acid sequence: QAKIRVRLSA [SEQ ID NO: 2], KIRVRLSA [SEQ ID NO: 3], QKKIRVRLSA [SEQ ID NO: 4] are used individually in a bacterial colony growth inhibition test. The test is conducted by incubating different concentrations of MAP peptides with E. coli (strain TG1) and plating bacterial cells on agar at a dilution such to allow for individual colonies counting. The following day, the number of colonies grown after treatment with the three MAP peptides is compared.
Antimicrobic tests were conducted incubating for 75 min at 37° C., 25 μL of E. coli at the OD600 of 0.2 with 25 μl of MAP peptide dissolved in PBS at the various concentrations. The different incubations were further diluted 1:1000 in 2×TY medium and 100 μl were plated on solid 2×TY medium. The plates were left overnight at 30° C. and the individual grown colonies were counted and compared with a control, not treated with MAP peptide.

E. coli ATCC 25922 = assay: Minimal bactericidal concentration (MBC); type: cell-based
Method: as §2
(§3) The MBC was determined as recommended by the National Committee for Clinical Laboratory Standards (NCCLS) on strains of E. coli ATCC 25922 and P. aeruginosa ATCC 27853.

P. aeruginosa ATCC 27853 = assay: Minimal bactericidal concentration (MBC); type: cell-based
Method: as §2, §3

[8] = system: murine macrophage cells J774 A.1; assay: Cytotoxicity test by MTT; type: cell-based, mouse
Method: The cytotoxicity of antibacterial MAP peptides was evaluated on different eukaryotic cell lines by a colorimetric assay (MTT). This assay measures the cells' ability to convert a soluble tetrazolium salt into an insoluble precipitate: formazan. The cytotoxicity of M1 was evaluated on murine macrophagic cells (J774 A.1), murine myeloma cells (SPO) and Chinese hamster ovary epithelium cells (CHO K1). As shown FIG. 4, even at high concentrations (1 mg/ml) M1 cytotoxicity on CHO K1 cells and on SPO cells is low (percent survival is 80-90%).
For cytotoxicity tests, different cell lines were used: murine myeloma cells SPO, hamster ovary epithelium cells CHO K 1, murine macrophage cells J774 A.1 and human keratinocytes HaCaT. The cells were plated in medium in RPMI 1640 (SPO and CHO K 1) and DMEM (J774 A.1 and HaCaT) with antibiotics and bovine foetal serum at 10%, in 96-well plates at the concentration of 6×10^4 (SPO, CHO K1 and J774 A.1) and 3×10^4 (HaCaT). Peptides, previously filtered with a 0.2 μm filter disk (Whatman), were added at various concentrations to the different cell lines and left in incubation over night at 37° C. Cell viability was determined adding the MTT tetrazolium salt at the concentration of 0.5 mg/ml and incubating for 90 min. The cells were solubilised with a solution at pH 4.5 containing SDS 10% and dimethylformamide 45% and read at the dual wavelength of 595/650 nm with a plate reader.

[9] = system: Pichia pastoris yeast strain X33; assay: Effect on Pichia pastoris yeast colonies; type: cell-based
Method: To a volume of 50 μl of culture of Pichia pastoris grown 24 hour at 30° C. in YPD (Yeast Extract/Peptone/Dextrose) medium, 50 μl of MAP peptides (2 mg/ml) were added and left in incubation 150 min at 37° C. Subsequently, 50 μl of each incubation were plated on YPD solid medium and it was allowed to grow for 48 hours at 30° C. The number of colonies grown was compared with a control, where the yeast was not treated with the MAP.

[10] = Stability to plasmatic protease (HPLC); type: in vitro ADME, human
Method: Since the use of peptides as therapeutic agents is severely limited by their in vivo half-life, the stability to human serum protease of the linear peptide L1 and of the MAP peptides M1, M4, M5 and M6 was evaluated. The peptides were incubated at the concentration of 10 mM with plasma and with human serum for 2 and 24 hours; the samples were subsequently analysed in HPLC on column C18 (see materials and methods) to evaluate the presence of linear and MAP peptide not digested by the protease.
The various peptides in MAP form and the linear peptide (L1) were dissolved in H2O at the concentration of 10 mM and incubated with 10 μl of plasma and human serum for 2 and 24 hours at 37° C. To each sample were added 150 μl of methanol to block the proteolytic reaction; each sample was then centrifuged at 13,000 rpm for 2 min and to the supernatant were added 0.75 ml of 0.1% trifluoroacetic acid. The samples were analysed in reverse phase HPLC on a Vydac C18 semi-preparative column using a 30 min gradient of buffer B from 20% to 95% (buffer A: 0.1% trifluoroacetic acid/water; buffer B: 0.1% trifluoroacetic acid/methanol), to evaluate the presence of linear and MAP peptide after the proteolytic treatment.

I: QAKIRVRLSAKKA-OH / II: QAKIRVRLSAK / III: QAKIRVRLSA / IV: QAKIRVRLSA (amide I:11-IV:C, I:12-II:C, II:11-III:C) [M4]
MIC (Molarity) [1]: 3.2 µM
MIC (Molarity) [2]: 13 µM
MIC (Molarity) [3]: 13 µM
MIC (Molarity) [4]: 13 µM
MIC (Molarity) [5]: 6.4 µM
MIC (Molarity) ([6]; ATCC 25923): 1.3e-05 M
MIC (Molarity) ([6]; Staphylococcus aureus ATCC 25923, reference strain, listed as M32 = M4): >1.2e-05 M
MIC (Molarity) ([6]; Staphylococcus aureus ATCC 25923, reference strain, listed as QAKIRVRLSA): ~10^−5 M
MIC (Molarity) [7]: >26 µM
Concentration down to which TG1 E. coli colony growth is prevented (E. coli strain TG1; E. coli TG1, MAP form): less effective
Antibacterial activity on E. coli TG1 colony growth (E. coli strain TG1; E. coli TG1, colony counting vs control without peptide): good antibacterial activity
MBC (minimal concentration able to kill 99.9% of the inoculum) compared with MIC (E. coli ATCC 25922): equal to the calculated values of MIC
MBC (minimal concentration able to kill 99.9% of the inoculum) compared with MIC (E. coli ATCC 25922; listed as QAKIRVRLSA): equal to the corresponding MIC values
MBC (minimal concentration able to kill 99.9% of the inoculum) compared with MIC (P. aeruginosa ATCC 27853): equal to the calculated values of MIC
MBC (minimal concentration able to kill 99.9% of the inoculum) compared with MIC (P. aeruginosa ATCC 27853; listed as QAKIRVRLSA): equal to the corresponding MIC values
Concentration at and over which a drop in cell viability was evident (MTT) [8]: ≥ 250 µg/mL
Vitality of J774 A.1 cells as the concentration of MAP peptides increases (MTT) [8]: decreases
Number of yeast colonies vs negative control [9]: did not differ from the negative control
Resistance to plasmatic protease: Plasma 2 h [10]: +
Resistance to plasmatic protease: Plasma 24 h [10]: +
